Among the data in patent US20240299385A1 (ReWind Therapeutics NV, priority 2021, published 2024) are IC50 values, retold here.

SMILES strings stand for the structures.

For this assay, the target named is T1, human GPR17 receptor (Homo sapiens, UniProt Q13304).
T1 construct: host or cells: HEK-293
T1 sequence (Q13304 whole entry): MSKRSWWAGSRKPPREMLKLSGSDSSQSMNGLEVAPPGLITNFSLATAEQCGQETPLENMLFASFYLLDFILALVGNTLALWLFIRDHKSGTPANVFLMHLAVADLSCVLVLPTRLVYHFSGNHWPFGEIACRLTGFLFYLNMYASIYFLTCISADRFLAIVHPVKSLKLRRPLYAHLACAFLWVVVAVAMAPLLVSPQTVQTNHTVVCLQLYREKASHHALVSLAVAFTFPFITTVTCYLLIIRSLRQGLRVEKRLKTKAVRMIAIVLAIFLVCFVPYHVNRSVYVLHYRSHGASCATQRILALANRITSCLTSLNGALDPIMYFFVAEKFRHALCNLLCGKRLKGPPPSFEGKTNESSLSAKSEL
The assay can be described thus: Calcium mobilization functional assay (Fluo-8, FLIPR TETRA) in HEK-293 hGPR17 (Gα-q assay). It counts as cell-based. The following applies: antagonism of MDL29,951 (~EC80) induced Ca2+ signal; cell line (HEK-293 hGPR17 or HEK-293 Suchi5 hGPR17) not given. The method, boiled down: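 Fluo-8-loaded HEK-293 hGPR17 cells (60 min dye loading, room temperature) were preincubated with compound for twenty minutes, then challenged with agonist MDL29,951 at ~EC80, 500 nM. Intracellular calcium release via Gα-q was recorded as FLIPR fluorescence for a further 2 minutes; compounds tested in duplicate.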
Broadly, the IC50 is the concentration that gives 50% inhibition. Regarding `N#Cc1ccc(NS(=O)(=O)c2c[nH]c(-c3ccoc3)c2)c(F)c1` [Cpd 441, N-(4-cyano-2-fluorophenyl)-5-(furan-3-yl)-1H-pyrrole-3-sulfonamide], the 50% inhibitory concentration (IC50) is less than 500 nM.
In the case of `N#Cc1ccc(NS(=O)(=O)c2c[nH]c(-c3cccc4ccoc34)c2)c(F)c1` [Cpd 442, 5-(1-benzofuran-7-yl)-N-(4-cyano-2-fluorophenyl)-1H-pyrrole-3-sulfonamide], the half-inhibitory concentration (IC50) is less than 500 nM.
For the compound `N#Cc1ccc(NS(=O)(=O)c2c[nH]c(-c3cccc4c3OCC4)c2)c(F)c1` [Cpd 443, N-(4-cyano-2-fluorophenyl)-5-(2,3-dihydro-1-benzofuran-7-yl)-1H-pyrrole-3-sulfonamide], the IC50 is less than 500 nM.
With `COc1nc(OCC(F)F)c(F)cc1NS(=O)(=O)c1c[nH]cc1Cc1ccccc1` [Cpd 444, 4-benzyl-N-[6-(2,2-difluoroethoxy)-5-fluoro-2-methoxypyridin-3-yl]-1H-pyrrole-3-sulfonamide], the 50% inhibitory concentration (IC50) was 500 to 5000 nM.
With `N#Cc1ccc(NS(=O)(=O)c2c[nH]c(-c3ccco3)c2)c(F)c1` [Cpd 445, N-(4-cyano-2-fluorophenyl)-5-(furan-2-yl)-1H-pyrrole-3-sulfonamide], the half-inhibitory concentration (IC50) is less than 500 nM.
Under `O=S(=O)(Nc1cc(F)c(Br)cc1F)c1c[nH]c(-c2ccc(F)cc2)c1` [Cpd 446, N-(4-bromo-2,5-difluorophenyl)-5-(4-fluorophenyl)-1H-pyrrole-3-sulfonamide] stands 500 to 5000 nM; under `O=S(=O)(Nc1cc(F)c(Br)cc1F)c1c[nH]c(-c2ccc(F)cc2F)c1` [Cpd 447, N-(4-bromo-2,5-difluorophenyl)-5-(2,4-difluorophenyl)-1H-pyrrole-3-sulfonamide], 500 to 5000 nM.
Regarding `N#CCOc1cc(F)c(NS(=O)(=O)c2c[nH]c(-c3ccccc3F)c2)cc1F` [Cpd 448, N-[4-(cyanomethoxy)-2,5-difluorophenyl]-5-(2-fluorophenyl)-1H-pyrrole-3-sulfonamide], the IC50 is less than 500 nM.
Under `N#CCOc1cc(F)c(NS(=O)(=O)c2c[nH]c(-c3cc(Cl)ccc3F)c2)cc1F` [Cpd 449, 5-(5-chloro-2-fluorophenyl)-N-[4-(cyanomethoxy)-2,5-difluorophenyl]-1H-pyrrole-3-sulfonamide] stands less than 500 nM; under `N#CCOc1cc(F)c(NS(=O)(=O)c2c[nH]c(-c3ccc(F)cc3)c2)cc1F` [Cpd 450, N-[4-(cyanomethoxy)-2,5-difluorophenyl]-5-(4-fluorophenyl)-1H-pyrrole-3-sulfonamide], 500 to 5000 nM; under `N#CCOc1cc(F)c(NS(=O)(=O)c2c[nH]c(-c3ccc(F)cc3F)c2)cc1F` [Cpd 451, N-[4-(cyanomethoxy)-2,5-difluorophenyl]-5-(2,4-difluorophenyl)-1H-pyrrole-3-sulfonamide], 500 to 5000 nM.
Next, `O=S(=O)(Nc1cc(F)c(OC(F)F)cc1F)c1c[nH]cc1Cc1cccs1` [Cpd 452, N-[4-(difluoromethoxy)-2,5-difluorophenyl]-4-(thiophen-2-ylmethyl)-1H-pyrrole-3-sulfonamide]: less than 500 nM.
On to `O=S(=O)(Nc1cc(F)c(OC(F)F)cc1F)c1c[nH]cc1Cc1cccc(F)c1` [Cpd 453, N-[4-(difluoromethoxy)-2,5-difluorophenyl]-4-[(3-fluorophenyl)methyl]-1H-pyrrole-3-sulfonamide], for which the concentration for half-maximal inhibition (IC50) was less than 500 nM.
Under `O=S(=O)(Nc1cc(F)c(OC(F)F)cc1F)c1c[nH]cc1Cc1cccc(Cl)c1` [Cpd 454, 4-[(3-chlorophenyl)methyl]-N-[4-(difluoromethoxy)-2,5-difluorophenyl]-1H-pyrrole-3-sulfonamide] stands 500 to 5000 nM; under `O=S(=O)(Nc1cc(Cl)c(OC(F)F)cc1F)c1c[nH]c(-c2ccccc2)c1` [Cpd 455, N-[5-chloro-4-(difluoromethoxy)-2-fluorophenyl]-5-phenyl-1H-pyrrole-3-sulfonamide], less than 500 nM; under `N#Cc1cc(F)c(NS(=O)(=O)c2c[nH]c(-c3cc(Cl)c(F)cc3F)c2)cc1F` [Cpd 456, 5-(5-chloro-2,4-difluorophenyl)-N-(4-cyano-2,5-difluorophenyl)-1H-pyrrole-3-sulfonamide], less than 500 nM.
Under `Cc1cc(-c2cc(S(=O)(=O)Nc3cc(F)c(C(F)(F)F)cc3F)c[nH]2)cs1` [Cpd 457, N-[2,5-difluoro-4-(trifluoromethyl)phenyl]-5-(5-methylthiophen-3-yl)-1H-pyrrole-3-sulfonamide] stands 500 to 5000 nM; under `O=S(=O)(Nc1cc(F)c(C(F)(F)F)cc1F)c1c[nH]c(-c2csc(Cl)c2)c1` [Cpd 458, 5-(5-chlorothiophen-3-yl)-N-[2,5-difluoro-4-(trifluoromethyl)phenyl]-1H-pyrrole-3-sulfonamide], 500 to 5000 nM.
Next, `N#CCOc1cc(F)c(NS(=O)(=O)c2c[nH]c(-c3ccccc3Cl)c2)cc1F` [Cpd 459, 5-(2-chlorophenyl)-N-[4-(cyanomethoxy)-2,5-difluorophenyl]-1H-pyrrole-3-sulfonamide]: less than 500 nM; `COc1nc(OCC(F)F)c(F)cc1NS(=O)(=O)c1c[nH]cc1-c1cccc(F)c1` [Cpd 460, N-[6-(2,2-difluoroethoxy)-5-fluoro-2-methoxypyridin-3-yl]-4-(3-fluorophenyl)-1H-pyrrole-3-sulfonamide]: 500 to 5000 nM.
As for `Cc1[nH]cc(S(=O)(=O)Nc2ccc(C#N)cc2F)c1-c1ccccc1` [Cpd 461, N-(4-cyano-2-fluorophenyl)-5-methyl-4-phenyl-1H-pyrrole-3-sulfonamide], the IC50 is 5000 to 50000 nM.
For the compound `N#Cc1cc(F)c(NS(=O)(=O)c2c[nH]c(-c3c(F)cc(F)cc3F)c2)cc1F` [Cpd 462, N-(4-cyano-2,5-difluorophenyl)-5-(2,4,6-trifluorophenyl)-1H-pyrrole-3-sulfonamide], the IC50 is less than 500 nM.
Next, `O=S(=O)(Nc1cc(F)c(OCC(F)F)cc1F)c1c[nH]c(-c2ccccc2)c1` [Cpd 463, N-[4-(2,2-difluoroethoxy)-2,5-difluorophenyl]-5-phenyl-1H-pyrrole-3-sulfonamide]: 500 to 5000 nM.
Next, `COc1cc(CC#N)cnc1NS(=O)(=O)c1c[nH]c(-c2ccccc2F)c1` [Cpd 464, N-[5-(cyanomethyl)-3-methoxypyridin-2-yl]-5-(2-fluorophenyl)-1H-pyrrole-3-sulfonamide]: 500 to 5000 nM.
Next, `O=S(=O)(Nc1cc(F)c(C(F)(F)F)cc1F)c1c[nH]c(-c2cccc3cccnc23)c1` [Cpd 465, N-[2,5-difluoro-4-(trifluoromethyl)phenyl]-5-quinolin-8-yl-1H-pyrrole-3-sulfonamide]: 500 to 5000 nM; `N#CCOc1cc(F)c(NS(=O)(=O)c2c[nH]cc2-c2cccc(F)c2)cc1F` [Cpd 466, N-[4-(cyanomethoxy)-2,5-difluorophenyl]-4-(3-fluorophenyl)-1H-pyrrole-3-sulfonamide]: 500 to 5000 nM; `O=S(=O)(Nc1cc(F)c(OCC(F)F)cc1F)c1c[nH]cc1Cc1ccccc1` [Cpd 468, 4-benzyl-N-[4-(2,2-difluoroethoxy)-2,5-difluorophenyl]-1H-pyrrole-3-sulfonamide]: 500 to 5000 nM.
As for `COc1nc(Br)cnc1NS(=O)(=O)c1c[nH]cc1-c1cccc(F)c1` [Cpd 469, N-(5-bromo-3-methoxypyrazin-2-yl)-4-(3-fluorophenyl)-1H-pyrrole-3-sulfonamide], the half-inhibitory concentration (IC50) is 500 to 5000 nM.
With `N#Cc1cc(F)c(NS(=O)(=O)c2c[nH]c(-c3cc(Cl)c(F)cc3F)c2)cc1Cl` [Cpd 470, 5-(5-chloro-2,4-difluorophenyl)-N-(5-chloro-4-cyano-2-fluorophenyl)-1H-pyrrole-3-sulfonamide], the 50% inhibitory concentration (IC50) lay within 500 to 5000 nM.
In the case of `Cc1cc(NS(=O)(=O)c2c[nH]c(-c3cc(Cl)c(F)cc3F)c2)c(F)cc1C#N` [Cpd 471, 5-(5-chloro-2,4-difluorophenyl)-N-(4-cyano-2-fluoro-5-methylphenyl)-1H-pyrrole-3-sulfonamide], the half-maximal inhibitory concentration (IC50) fell in the range of 500 to 5000 nM.
Under `N#CCOc1cnc(NS(=O)(=O)c2c[nH]c(-c3ccccc3)c2)c(F)c1` [Cpd 472, N-[5-(cyanomethoxy)-3-fluoropyridin-2-yl]-5-phenyl-1H-pyrrole-3-sulfonamide] stands 500 to 5000 nM; under `O=S(=O)(Nc1cc(F)c(OCC(F)F)cc1F)c1c[nH]c(-c2ccccn2)c1` [Cpd 473, N-[4-(2,2-difluoroethoxy)-2,5-difluorophenyl]-5-pyridin-2-yl-1H-pyrrole-3-sulfonamide], 500 to 5000 nM; under `O=S(=O)(Nc1cc(F)c(OC(F)F)cc1F)c1c[nH]c(-c2ccoc2)c1` [Cpd 474, N-[4-(difluoromethoxy)-2,5-difluorophenyl]-5-(furan-3-yl)-1H-pyrrole-3-sulfonamide], less than 500 nM.
`O=S(=O)(Nc1cc(F)c(OC(F)F)cc1F)c1c[nH]c(-c2cccs2)c1` [Cpd 475, N-[4-(difluoromethoxy)-2,5-difluorophenyl]-5-thiophen-2-yl-1H-pyrrole-3-sulfonamide]: the half-maximal inhibitory concentration (IC50) is less than 500 nM.
As to `O=S(=O)(Nc1cc(F)c(OC(F)F)cc1F)c1c[nH]c(-c2ccsc2)c1` [Cpd 476, N-[4-(difluoromethoxy)-2,5-difluorophenyl]-5-thiophen-3-yl-1H-pyrrole-3-sulfonamide], the 50% inhibitory concentration (IC50) was less than 500 nM.
Turning to `O=S(=O)(Nc1cc(F)c(Br)cc1F)c1c[nH]c(-c2ccoc2)c1` [Cpd 477, N-(4-bromo-2,5-difluorophenyl)-5-(furan-3-yl)-1H-pyrrole-3-sulfonamide], the 50% inhibitory concentration (IC50) was less than 500 nM.
Take `O=S(=O)(Nc1cc(F)c(Br)cc1F)c1c[nH]c(-c2cccs2)c1` [Cpd 478, N-(4-bromo-2,5-difluorophenyl)-5-(thiophen-2-yl)-1H-pyrrole-3-sulfonamide]: the IC50 was less than 500 nM.
Under `O=S(=O)(Nc1cc(F)c(Br)cc1F)c1c[nH]c(-c2ccsc2)c1` [Cpd 479, N-(4-bromo-2,5-difluorophenyl)-5-thiophen-3-yl-1H-pyrrole-3-sulfonamide] stands less than 500 nM.
